Key:
[1] = test system: IPOHE (Ipomoea hederacea); experiment: Postemergence herbicidal evaluation; assay type: in vivo, (L.) Jacq.
Procedure, shortened: (§1)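 Visual 0–9 injury scores versus control plants, covering stand, vigour, malformation, size, chlorosis and general appearance, taken four to five weeks post-spray and averaged over replicate tests. Plants were sprayed at roughly two weeks old and held on greenhouse benches.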

[2] = test system: SAGPY (Sagittaria pygmaea); experiment: Flooded paddy, preemergence weed control; assay type: in vivo, L.; conditions: rated 3-4 weeks after treatment, 0-9 rating scale
Procedure, shortened: (§2)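 In this preemergence paddy assay, weed seeds or organs are sown at up to 0.5 cm in silt loam and covered by 1.5–3 cm of water for the full test period. After treatment the pots are kept in a greenhouse, and herbicidal effect is rated 0-9 visually against a control.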

[3] = test system: TRZAWR (Wheat, Winter, cv Riband); experiment: Preemergence herbicidal evaluation; assay type: in vivo, Triticum aestivum; conditions: rated 4-5 weeks after treatment
Procedure, shortened: (§3)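 Visual 0-9 rating versus untreated control, taken four to five weeks post-treatment, scoring stand, vigor, malformation, size, chlorosis and overall appearance. Compound applied as aqueous acetone spray to freshly seeded soil cups, then kept under standard greenhouse care.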

[4] = test system: CYPSE (Cyperus serotinus); experiment: Flooded paddy, preemergence weed control; assay type: in vivo, Rottb.; conditions: rated 3-4 weeks after treatment, 0-9 rating scale
Procedure, shortened: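 Herbicidal effect was scored visually on a 0–9 scale against an untreated control 3–4 weeks after treatment. Compounds were applied preemergence as 50/50 v/v aqueous/acetone mixtures into flood water (1.5–3 cm deep over silt loam), at roughly 0.0080 to 0.1250 kg/ha active ingredient.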

[5] = test system: GLXMAW (Soybean, Williams); experiment: Postemergence herbicidal evaluation; assay type: in vivo, Glycine max, (L.) Merr. cv Williams
Procedure, shortened: as §1

[6] = test system: GLXMAW (Soybean, Williams); experiment: Preemergence herbicidal evaluation; assay type: in vivo, Glycine max, (L.) Merr. cv Williams; conditions: rated 4-5 weeks after treatment
ORYSAT (Rice, Tebonnet) = experiment: Preemergence herbicidal evaluation; assay type: in vivo, Oryza sativa, (L.) Tebonnet; conditions: rated 4-5 weeks after treatment
[7] = test system: CASOB (Cassia obtusifolia); experiment: Postemergence herbicidal evaluation; assay type: in vivo, L.
Procedure, shortened: as §1

[8] = test system: CHEAL (Chenopodium album); experiment: Postemergence herbicidal evaluation; assay type: in vivo, L.
Procedure, shortened: as §1

[9] = test system: AMBEL (Ambrosia artemisifolia); experiment: Postemergence herbicidal evaluation; assay type: in vivo, L.
Procedure, shortened: as §1

[10] = test system: ABUTH (Abutilon theophrasti); experiment: Postemergence herbicidal evaluation; assay type: in vivo, Medic.
Procedure, shortened: as §1

CYPIR (Cyperus iria) = experiment: Flooded paddy, preemergence weed control; assay type: in vivo; conditions: rated 3-4 weeks after treatment, 0-9 rating scale
Procedure, shortened: as §2

ZEAMX (Corn, Field) [11] = experiment: Preemergence herbicidal evaluation; assay type: in vivo, Zea mays, L.; conditions: rated 4-5 weeks after treatment
[12] = test system: ECHORC (Echinochloa oryzoides); experiment: Flooded paddy, preemergence weed control; assay type: in vivo, Echinochloa oryzoides (Ard.) Fritsch.; conditions: rated 3-4 weeks after treatment, 0-9 rating scale
Procedure, shortened: as §2

[13] = test system: IPOHE (Ipomoea hederacea); experiment: Preemergence herbicidal evaluation; assay type: in vivo, (L.) Jacq.; conditions: rated 4-5 weeks after treatment
GALAP (Galium aparine) = experiment: Postemergence herbicidal evaluation; assay type: in vivo
Procedure, shortened: as §1

[14] = test system: CASOB (Cassia obtusifolia); experiment: Preemergence herbicidal evaluation; assay type: in vivo, L.; conditions: rated 4-5 weeks after treatment
Procedure, shortened: as §3

[15] = test system: CHEAL (Chenopodium album); experiment: Preemergence herbicidal evaluation; assay type: in vivo, L.; conditions: rated 4-5 weeks after treatment
Procedure, shortened: as §3

[16] = test system: AMBEL (Ambrosia artemisifolia); experiment: Preemergence herbicidal evaluation; assay type: in vivo, L.; conditions: rated 4-5 weeks after treatment
Procedure, shortened: as §3

ZEAMX (Corn, Field) [17] = experiment: Postemergence herbicidal evaluation; assay type: in vivo, Zea mays, L.
Procedure, shortened: as §1

[18] = test system: ECHCG (Echinochloa crus-galli); experiment: Postemergence herbicidal evaluation; assay type: in vivo, (L.) Beau
Procedure, shortened: as §1

C[C@H]1OC(c2nsc3ccc(-n4c(=O)cc(C(F)(F)F)n(C)c4=O)cc23)O[C@@H]1C [Compound 48, 3-[3-[(4R,5R)-4,5-dimethyl-1,3-dioxolan-2-yl]-1,2-benzisothiazol-5-yl]-1-methyl-6-(trifluoromethyl)uracil]
Postemergence herbicidal rating, IPOHE ([1]; rate 0.0320 kg/ha): 9.0 | Postemergence herbicidal rating, IPOHE ([1]; rate 0.0620 kg/ha): 9.0 | herbicidal rating, SAGPY ([2]; rate 0.0080 kg/ha): 0.0 | herbicidal rating, SAGPY ([2]; rate 0.0320 kg/ha): 7.5 | herbicidal rating, SAGPY ([2]; rate 0.1250 kg/ha): 9.0 | Preemergence herbicidal rating TRZAWR ([3]; Rate 0.0620 kg/ha): 6.0 | Preemergence herbicidal rating TRZAWR ([3]; Rate 0.1250 kg/ha): 8.0 | Preemergence herbicidal rating TRZAWR ([3]; Rate 0.2500 kg/ha): 8.0 | herbicidal rating, CYPSE ([4]; rate 0.0320 kg/ha): 9.0 | herbicidal rating, CYPSE ([4]; rate 0.1250 kg/ha): 9.0 | Postemergence herbicidal rating, GLXMAW ([5]; rate 0.0320 kg/ha): 8.0 | Postemergence herbicidal rating, GLXMAW ([5]; rate 0.0620 kg/ha): 8.7 | Preemergence herbicidal rating GLXMAW ([6]; Rate 0.0620 kg/ha): 9.0 | Preemergence herbicidal rating GLXMAW ([6]; Rate 0.1250 kg/ha): 9.0 | Preemergence herbicidal rating GLXMAW ([6]; Rate 0.2500 kg/ha): 9.0 | Preemergence herbicidal rating ORYSAT (ORYSAT (Rice, Tebonnet); Rate 0.0620 kg/ha): 7.5 | Preemergence herbicidal rating ORYSAT (ORYSAT (Rice, Tebonnet); Rate 0.1250 kg/ha): 8.0 | Preemergence herbicidal rating ORYSAT (ORYSAT (Rice, Tebonnet); Rate 0.2500 kg/ha): 9.0 | Postemergence herbicidal rating, CASOB ([7]; rate 0.0320 kg/ha): 1.0 | Postemergence herbicidal rating, CASOB ([7]; rate 0.0620 kg/ha): 7.0 | Postemergence herbicidal rating, CHEAL ([8]; rate 0.0320 kg/ha): 9.0 | Postemergence herbicidal rating, CHEAL ([8]; rate 0.0620 kg/ha): 9.0 | Postemergence herbicidal rating, AMBEL ([9]; rate 0.0320 kg/ha): 9.0 | Postemergence herbicidal rating, AMBEL ([9]; rate 0.0620 kg/ha): 9.0 | Postemergence herbicidal rating, ABUTH ([10]; rate 0.0320 kg/ha): 9.0 | Postemergence herbicidal rating, ABUTH ([10]; rate 0.0620 kg/ha): 9.0 | herbicidal rating, CYPIR (CYPIR (Cyperus iria); rate 0.0080 kg/ha): 0.0 | herbicidal rating, CYPIR (CYPIR (Cyperus iria); rate 0.0320 kg/ha): 8.0 | herbicidal rating, CYPIR (CYPIR (Cyperus iria); rate 0.1250 kg/ha): 9.0 | Preemergence herbicidal rating ZEAMX (ZEAMX (Corn, Field) [11]; Rate 0.0620 kg/ha): 7.5 | Preemergence herbicidal rating ZEAMX (ZEAMX (Corn, Field) [11]; Rate 0.1250 kg/ha): 8.0 | Preemergence herbicidal rating ZEAMX (ZEAMX (Corn, Field) [11]; Rate 0.2500 kg/ha): 9.0 | herbicidal rating, ECHORC ([12]; rate 0.0080 kg/ha): 8.0 | herbicidal rating, ECHORC ([12]; rate 0.0320 kg/ha): 9.0 | herbicidal rating, ECHORC ([12]; rate 0.1250 kg/ha): 9.0 | Preemergence herbicidal rating IPOHE ([13]; Rate 0.0620 kg/ha): 8.0 | Preemergence herbicidal rating IPOHE ([13]; Rate 0.1250 kg/ha): 8.5 | Preemergence herbicidal rating IPOHE ([13]; Rate 0.2500 kg/ha): 9.0 | Postemergence herbicidal rating, GALAP (GALAP (Galium aparine); rate 0.0320 kg/ha): 9.0 | Postemergence herbicidal rating, GALAP (GALAP (Galium aparine); rate 0.0620 kg/ha): 9.0 | Preemergence herbicidal rating CASOB ([14]; Rate 0.0620 kg/ha): 5.0 | Preemergence herbicidal rating CASOB ([14]; Rate 0.1250 kg/ha): 7.5 | Preemergence herbicidal rating CASOB ([14]; Rate 0.2500 kg/ha): 9.0 | Preemergence herbicidal rating CHEAL ([15]; Rate 0.0620 kg/ha): 9.0 | Preemergence herbicidal rating CHEAL ([15]; Rate 0.1250 kg/ha): 9.0 | Preemergence herbicidal rating CHEAL ([15]; Rate 0.2500 kg/ha): 9.0 | Preemergence herbicidal rating AMBEL ([16]; Rate 0.0620 kg/ha): 9.0 | Preemergence herbicidal rating AMBEL ([16]; Rate 0.1250 kg/ha): 9.0 | Preemergence herbicidal rating AMBEL ([16]; Rate 0.2500 kg/ha): 9.0 | Postemergence herbicidal rating, ZEAMX (ZEAMX (Corn, Field) [17]; rate 0.0320 kg/ha): 4.5 | Postemergence herbicidal rating, ZEAMX (ZEAMX (Corn, Field) [17]; rate 0.0620 kg/ha): 5.7 | Postemergence herbicidal rating, ECHCG ([18]; rate 0.0320 kg/ha): 5.0 | Postemergence herbicidal rating, ECHCG ([18]; rate 0.0620 kg/ha): 3.0
